Type in all cases: in vitro ADME
For one data set, the target named is T1, CYP2C9 (Homo sapiens, UniProt P11712).
T1 construct: pooled human liver microsomes (0.25 mg/mL); tissue BD Gentest Co. H161; host or cells: pooled human liver microsomes
The data set can be described thus: Cocktail probe assay in pooled human liver microsomes: diclofenac 4-hydroxylation (IC50). As to conditions: 10 μM diclofenac. As to the method: (§1) The inhibitory potencies (IC50 values) of eupatilin and jaceosidin were determined with CYP assays in the presence and absence of eupatilin and jaceosidin (final concentrations of 0.1−100 μM with acetonitrile concentration of less than 0.5% v/v) using pooled human liver microsomes. Phenacetin O-deethylase, coumarin 7-hydroxylase, amodiaquine N-deethylase, diclofenac hydroxylase, [S]-mephenytoin 4'-hydroxylase, bufuralol 1'-hydroxylase, and midazolam 1'-hydroxylase activities were determined as probe activities for CYP1A2, CYP2A6, CYP2C8, CYP2C9, CYP2C19, CYP2D6, and CYP3A, respectively, using cocktail incubation and tandem mass spectrometry. The incubation mixtures were prepared in a total volume of 200 μL as follows: pooled human liver microsomes (0.25 mg/mL), 1.3 mM NADPH, 3.3 mM MgCl2, 50 mM potassium phosphate buffer (pH 7.4), and a cocktail of probe substrates and various concentrations of eupatilin or jaceosidin (0.1−100 μM). […] After a 3 min preincubation at 37 °C, the reactions were initiated by adding NADPH and incubated for 20 min at 37 °C with shaking in a water bath. After incubation, the reaction was stopped by placing the tubes on ice and adding 100 μL of ice-cold acetonitrile containing internal standards (0.5 μg/mL [^13C,^15N]-acetaminophen for acetaminophen and N-desethylamodiaquine, 0.5 μg/mL [^2H5]-7-hydroxycoumarin for 7-hydroxycoumarin, 2.0 μg/mL [^13C6]-4-hydoxydiclofenac for 4-hydoxydiclofenac, 0.5 μg/mL [^2H3]-4'-hydoxymephenytoin for 4-hydoxymephenytoin and 1'-hydroxymidazolam, and 0.5 μg/mL [^2H7]-1'-hydroxybufuralol for 1'-hydroxybufuralol). The incubation mixtures were then centrifuged at 10,000× g for 5 min. All incubations were performedin triplicate.
(§2) To evaluate the effect of preincubation on inhibitory potency, eupatilin and jaceosidin (0.1−100 μM) were preincubated for 30 min with NADPH, buffer, and microsomes before the addition of the CYP probe substrates. The reaction was started by addition of the cocktail of probe substrates.
(§3) All seven metabolites produced from the cocktail of CYP isoform-specific substrates were simultaneously determined by LC/MS/MS. The system consisted of a tandem quadrupole mass spectrometer (TSQ Quantum Access, ThermoFisher Scientific, CA, USA) coupled with a Nanospace SI-2 LC system. The separation was performed on an Atlantis dC18 column (5 μm, 2.1 mm i.d. × 100 mm, Waters, Waltham, MA, USA) using the gradient elution of a mixture of 5% methanol in 0.1% formic acid (mobile phase A) and 95% methanol in 0.1% formic acid (mobile phase B) at a flow rate of 0.25 mL/min: 10% mobile phase B for 1 min, 10% to 95% mobile phase B for 1 min, 95% mobile phase B for 5 min. […] Quantification was performed by selected reaction monitoring (SRM) of the [M+H]^+ ion and the related product ion for each metabolite. […]
On the technique in general: Liver microsomes are vesicles of endoplasmic reticulum, rich in cytochrome P450 enzymes.

In data set [1] the target is T2, CYP2C19 (Homo sapiens, UniProt P33261).
T2 construct: pooled human liver microsomes (0.25 mg/mL); tissue BD Gentest Co. H161; host or cells: pooled human liver microsomes
The data set can be described thus: Cocktail probe assay in pooled human liver microsomes: [S]-mephenytoin 4'-hydroxylation (IC50). As to conditions: 50 μM [S]-mephenytoin. The protocol: as §1, §2, §3

Data set [2] deals with T2, CYP2C19. Kind of data set: Kinetic analysis (Ki, inhibition type) in human liver microsomes: [S]-mephenytoin 4'-hydroxylation. As to conditions: pooled human liver microsomes; for Inhibition type, S-mephenytoin 4'-hydroxylation (CYP2C19): Lineweaver, Dixon and secondary reciprocal plots. As to the method:
(§4) The Ki values and inhibition types (competitive, noncompetitive, uncompetitive, or mixed) were determined for eupatilin and jaceosidin using Lineweaver plots, Dixon plots, and secondary reciprocal plots.
(§5) The reactions were initiated by addition of NADPH at 37 °C and stopped after 15 min by placing the incubation tubes on ice and adding 100 μL of ice-cold methanol containing an internal standard. The incubation mixtures were centrifuged at 10,000' g for 5 min, and aliquots (5 μL) of the supernatants were analyzed by liquid chromatography/tandem mass spectrometry (LC/MS/MS).
(§6) All seven metabolites produced from the cocktail of CYP isoform-specific substrates were simultaneously determined by LC/MS/MS. The system consisted of a tandem quadrupole mass spectrometer (TSQ Quantum Access, ThermoFisher Scientific, CA, USA) coupled with a Nanospace SI-2 LC system. The separation was performed on an Atlantis dC18 column (5 μm, 2.1 mm i.d. × 100 mm, Waters, Waltham, MA, USA) using the gradient elution of a mixture of 5% methanol in 0.1% formic acid (mobile phase A) and 95% methanol in 0.1% formic acid (mobile phase B) at a flow rate of 0.25 mL/min: 10% mobile phase B for 1 min, 10% to 95% mobile phase B for 1 min, 95% mobile phase B for 5 min. The column and autosampler temperatures were 50 °C and 4 °C, respectively. After 1.5 min, the LC eluant was diverted from waste to the mass spectrometer that was fitted with an electrospray ionization (ESI) source and operated in the positive ion mode. The ESI source settings for the ionization of the metabolites were as follows: electrospray voltage, 5.0 kV; vaporizer temperature, 420 °C; capillary temperature 360 °C; sheath gas pressure, 35 psi; auxiliary gas pressure, 10 psi. Quantification was performed by selected reaction monitoring (SRM) of the [M+H]^+ ion and the related product ion for each metabolite. The analytical data were processed using Xcalibur® software (ThermoFisher Scientific).
(§7) The IC50 values (concentration of inhibitor causing 50% inhibition of the original enzyme activity) were calculated using WinNonlin software, a non-linear regression analysis program (Pharsight, Mountain View, CA, USA). The apparent kinetic parameters for inhibitory potential (Ki values) were estimated from the fitted curves using Enzyme Kinetics Ver. 1.3 program (Systat Software Inc., San Jose, CA, USA).

The next data set has as its target T3, CYP2D6 (Homo sapiens, UniProt P10635).
T3 construct: pooled human liver microsomes (0.25 mg/mL); tissue BD Gentest Co. H161; host or cells: pooled human liver microsomes
Kind of data set: Kinetic analysis (Ki, inhibition type) in human liver microsomes: bufuralol 1'-hydroxylation. As to conditions: pooled human liver microsomes. As to the method:
as §4, §5, §6, §7

The target of the next data set is T4, CYP1A2 (Homo sapiens, UniProt P05177).
T4 construct: pooled human liver microsomes (0.25 mg/mL); tissue BD Gentest Co. H161; host or cells: pooled human liver microsomes
T4 sequence (P05177 1-516): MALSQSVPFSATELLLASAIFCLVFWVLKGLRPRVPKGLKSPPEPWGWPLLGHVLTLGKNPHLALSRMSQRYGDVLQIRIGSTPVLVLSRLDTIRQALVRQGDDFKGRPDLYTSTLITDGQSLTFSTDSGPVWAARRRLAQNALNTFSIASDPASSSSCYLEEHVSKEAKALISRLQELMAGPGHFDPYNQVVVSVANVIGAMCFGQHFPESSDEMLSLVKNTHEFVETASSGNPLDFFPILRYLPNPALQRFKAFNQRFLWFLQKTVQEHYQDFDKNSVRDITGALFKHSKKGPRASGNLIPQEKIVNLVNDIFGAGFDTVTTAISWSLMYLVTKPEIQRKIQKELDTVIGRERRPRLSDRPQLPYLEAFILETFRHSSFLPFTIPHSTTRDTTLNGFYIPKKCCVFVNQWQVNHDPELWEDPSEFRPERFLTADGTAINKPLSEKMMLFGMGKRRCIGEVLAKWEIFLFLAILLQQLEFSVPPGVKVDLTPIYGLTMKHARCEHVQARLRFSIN
Kind of data set: Kinetic analysis (Ki, inhibition type) in human liver microsomes: phenacetin O-deethylation. As to conditions: pooled human liver microsomes. As to the method:
as §4, §5, §6, §7

A further data set addresses T5, CYP2C8 (Homo sapiens, UniProt P10632).
T5 construct: pooled human liver microsomes (0.25 mg/mL); tissue BD Gentest Co. H161; host or cells: pooled human liver microsomes
T5 sequence (P10632 1-490): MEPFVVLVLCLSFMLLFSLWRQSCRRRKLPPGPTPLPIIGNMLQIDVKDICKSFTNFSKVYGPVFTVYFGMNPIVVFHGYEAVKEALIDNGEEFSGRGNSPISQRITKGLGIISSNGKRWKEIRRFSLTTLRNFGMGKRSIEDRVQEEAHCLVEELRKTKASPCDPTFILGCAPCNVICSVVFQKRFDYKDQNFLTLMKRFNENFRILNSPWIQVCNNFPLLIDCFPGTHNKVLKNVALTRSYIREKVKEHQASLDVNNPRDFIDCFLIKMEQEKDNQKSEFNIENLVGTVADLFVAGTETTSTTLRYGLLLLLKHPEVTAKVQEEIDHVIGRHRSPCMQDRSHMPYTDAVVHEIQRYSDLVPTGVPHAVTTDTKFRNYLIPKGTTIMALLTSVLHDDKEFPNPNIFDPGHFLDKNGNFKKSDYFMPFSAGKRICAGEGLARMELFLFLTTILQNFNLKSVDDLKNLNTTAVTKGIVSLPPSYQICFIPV
Kind of data set: Cocktail probe assay in pooled human liver microsomes: amodiaquine N-deethylation (IC50). As to conditions: 2.0 μM amodiaquine, no preincubation. As to the method: as §1, with “After incubation, the reaction was stopped by placing the tubes on ice and adding 100 μL of ice-cold acetonitrile containing internal standards (0.5 μg/mL [^13C,^15N]-acetaminophen for acetaminophen and N-desethylamodiaquine, 0.5 μg/mL [^2H5]-7-hydroxycoumarin for 7-hydroxycoumarin, 2.0 μg/mL [^13C6]-4-hydoxydiclofenac for 4-hydoxydiclofenac, 0.5 μg/mL [^2H3]-4'-hydoxymephenytoin for 4-hydoxymephenytoin and 1'-hydroxymidazolam, and 0.5 μg/mL [^2H7]-1'-hydroxybufuralol for 1'-hydroxybufuralol). The incubation mixtures were then centrifuged at 10,000× g for 5 min. All incubations were performedin triplicate.” left out
All seven metabolites produced from the cocktail of CYP isoform-specific substrates were simultaneously determined by LC/MS/MS. […] Quantification was performed by selected reaction monitoring (SRM) of the [M+H]^+ ion and the related product ion for each metabolite. […]

Another data set concerns CYP3A. The data set can be described thus: Cocktail probe assay in pooled human liver microsomes: midazolam 1'-hydroxylation (IC50). As to conditions: 100 μM, human liver microsomes. As to the method: as §1, §2, §6, §7
Setting [3] is: with 30 min preincubation in presence of NADPH.
[4] abbreviates: Lineweaver, Dixon and secondary reciprocal plots.

Where only a bound is given, the exact number is not on record here.

T2 sequence (P33261 whole entry): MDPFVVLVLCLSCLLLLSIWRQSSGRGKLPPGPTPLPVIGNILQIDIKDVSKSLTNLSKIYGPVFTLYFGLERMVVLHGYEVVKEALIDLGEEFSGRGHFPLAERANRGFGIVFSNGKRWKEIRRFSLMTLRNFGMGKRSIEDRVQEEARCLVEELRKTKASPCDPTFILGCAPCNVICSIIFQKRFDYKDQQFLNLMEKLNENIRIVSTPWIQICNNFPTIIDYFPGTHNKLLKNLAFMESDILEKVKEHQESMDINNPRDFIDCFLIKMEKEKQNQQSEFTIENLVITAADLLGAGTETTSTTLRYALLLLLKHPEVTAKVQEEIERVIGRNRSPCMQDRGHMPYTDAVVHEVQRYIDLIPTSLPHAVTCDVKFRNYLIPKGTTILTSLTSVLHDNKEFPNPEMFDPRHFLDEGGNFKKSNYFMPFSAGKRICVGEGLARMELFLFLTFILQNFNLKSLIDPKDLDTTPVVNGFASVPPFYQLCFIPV
T1 sequence (P11712 whole entry): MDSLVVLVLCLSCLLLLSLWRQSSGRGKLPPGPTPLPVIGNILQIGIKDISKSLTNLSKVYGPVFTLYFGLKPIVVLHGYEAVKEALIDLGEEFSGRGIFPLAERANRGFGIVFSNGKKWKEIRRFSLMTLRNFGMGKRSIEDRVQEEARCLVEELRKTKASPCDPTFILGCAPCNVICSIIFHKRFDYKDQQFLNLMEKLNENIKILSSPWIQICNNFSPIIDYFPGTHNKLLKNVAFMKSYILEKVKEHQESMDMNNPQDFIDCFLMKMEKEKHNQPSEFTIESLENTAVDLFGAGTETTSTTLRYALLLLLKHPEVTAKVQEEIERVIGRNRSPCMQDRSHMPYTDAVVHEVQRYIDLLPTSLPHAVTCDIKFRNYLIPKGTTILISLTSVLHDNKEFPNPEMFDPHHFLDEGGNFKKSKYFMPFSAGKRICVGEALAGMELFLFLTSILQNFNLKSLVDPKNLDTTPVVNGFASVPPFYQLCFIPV
T3 sequence (P10635 whole entry): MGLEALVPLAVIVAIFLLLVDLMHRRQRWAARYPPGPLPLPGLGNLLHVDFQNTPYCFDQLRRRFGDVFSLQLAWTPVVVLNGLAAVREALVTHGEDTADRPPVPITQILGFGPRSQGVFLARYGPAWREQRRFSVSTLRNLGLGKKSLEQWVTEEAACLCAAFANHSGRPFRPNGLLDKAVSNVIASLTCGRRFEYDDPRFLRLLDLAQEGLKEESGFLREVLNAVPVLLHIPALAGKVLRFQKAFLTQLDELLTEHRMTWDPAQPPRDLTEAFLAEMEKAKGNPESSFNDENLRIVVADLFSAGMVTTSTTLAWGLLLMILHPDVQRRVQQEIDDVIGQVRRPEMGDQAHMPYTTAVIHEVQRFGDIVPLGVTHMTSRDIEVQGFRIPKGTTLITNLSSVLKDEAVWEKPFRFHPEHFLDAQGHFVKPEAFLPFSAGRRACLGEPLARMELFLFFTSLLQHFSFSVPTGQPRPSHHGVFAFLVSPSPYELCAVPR

For orientation: IC50 means the concentration that gives 50% inhibition. As usually defined, the Ki is the equilibrium dissociation constant of an inhibitor or competing ligand from its target. Higher therefore signals weaker binding. For the compound `COc1cc(-c2cc(=O)c3c(O)c(OC)c(O)cc3o2)ccc1O` [jaceosidin, 5,7-dihydroxy-2-(4-hydroxy-3-methoxyphenyl)-6-methoxychromen-4-one], the IC50 was 10.2 ± 1 µM at CYP2C9 (no preincubation); 8.6 ± 0.91 µM on CYP2C9 (setting [3]); 64.9 ± 4.8 µM at CYP2C19 [1] (no preincubation); 69.8 ± 3.8 µM on CYP2C19 [1] (setting [3]); more than 100 µM against CYP2C8. The Ki on CYP2C19 [2] (10-100 μM [S]-mephenytoin) came to 45.1 ± 4.2 µM; on CYP2D6 (0.5-5 μM bufuralol), 57.8 ± 3.6 µM; on CYP1A2 (10-100 μM phenacetin), 3.8 ± 0.23 µM. For the same compound, the “Inhibition type, S-mephenytoin 4'-hydroxylation (CYP2C19)” value on CYP2C19 [2] is on record as “mixed”; on CYP2C19 [2] (listed as Jaceosidin), “mixed type”. At CYP2D6 (setting [4]), the “Inhibition type, bufuralol 1'-hydroxylation (CYP2D6)” value is on record as “competitive”. Moreover, the “Inhibition type, phenacetin O-deethylation (CYP1A2)” value at CYP1A2 (setting [4]) is recorded as “competitive”. The “Inhibition of CYP3A4-catalyzed midazolam 1'-hydroxylation at the highest concentration tested” value with CYP3A is “negligible inhibition”.

(Values after paper PMC6257796, “Effects of Eupatilin and Jaceosidin on Cytochrome P450 Enzyme Activities in Human Liver Microsomes” (Molecules, 2010).)
